Converted amounts (≈) assume the structure as drawn. Like-named read-outs stand apart in the source and are kept apart here.
Test system: Mycobacterium tuberculosis (Mtb-GFP; H37Rv pMSP12::GFP)
Experiment: microbe, parasite or virus in culture
Format: cell-based
Conditions: 168 h
[1] = pH 6.8, read-out: Mtb Cho MITC95
[2] = pH 6.8, read-out: Mtb Glu MITC95

Row | SMILES | MIC [1] | MIC [2]
1 | C/C(=N\C#N)NC[C@H]1CN(c2cnc(N3CCS(=O)(=O)CC3)c(F)c2)C(=O)O1 [Example 8, (S,E)-N′-cyano-N-((3-(6-(1,1-dioxidothiomorpholino)-5-fluoropyridin-3-yl)-2-oxooxazolidin-5-yl)methyl)acetimidamide] | 6.25 µM (≈ 2.57 µg/mL) | 6.25 µM (≈ 2.57 µg/mL)
2 | CC(=O)NC[C@H]1CN(c2ccc(N3CCOCC3)c(F)c2)C(=O)O1 [Linezolid, reference compound] | 3.14 µM (≈ 1.06 µg/mL) | 4.58 µM (≈ 1.55 µg/mL)
3 | C/C(=N\C#N)NC[C@H]1CN(c2ccc(N3CCOCC3)c(F)c2)C(=O)O1 [Example 9, (S,E)-N′-cyano-N-((3-(3-fluoro-4-morpholinophenyl)-2-oxooxazolidin-5-yl)methyl)acetimidamide] | 3.12 µM (≈ 1.13 µg/mL) | 3.12 µM (≈ 1.13 µg/mL)
4 | CC(=N)NC[C@H]1CN(c2cc(F)c(-c3cccc(S(N)(=O)=O)c3)c(F)c2)C(=O)O1 [Example 22, (S)-N-((3-(2,6-difluoro-3′-sulfamoyl-[1,1′-biphenyl]-4-yl)-2-oxooxazolidin-5-yl)methyl)acetimidamide] | 6.25 µM (≈ 2.65 µg/mL) | 3.12 µM (≈ 1.32 µg/mL)
5 | N=CNC[C@H]1CN(c2cc(F)c(-c3ccc(S(N)(=O)=O)cc3)c(F)c2)C(=O)O1 [Example 18, (S)-N-((3-(2,6-difluoro-4′-sulfamoyl-[1,1′-biphenyl]-4-yl)-2-oxooxazolidin-5-yl)methyl)formimidamide] | 0.39 µM (≈ 0.16 µg/mL) | 0.29 µM (≈ 0.119 µg/mL)
6 | CC(=N)NC[C@H]1CN(c2ccc(-c3ccnn3C)c(F)c2)C(=O)O1 [Example 21, (S)-N-((3-(3-fluoro-4-(1-methyl-1H-pyrazol-5-yl)phenyl)-2-oxooxazolidin-5-yl)methyl)acetimidamide] | 25 µM (≈ 8.28 µg/mL) | 25 µM (≈ 8.28 µg/mL)
7 | N#C/N=C(\N)NC[C@H]1CN(c2ccc(-c3ccc(-n4nccn4)nc3)c(F)c2)C(=O)O1 [Example 3, (S,E)-1-((3-(4-(6-(2H-1,2,3-triazol-2-yl)pyridin-3-yl)-3-fluorophenyl)-2-oxooxazolidin-5-yl)methyl)-2-cyanoguanidine] | 0.19 µM (≈ 0.0801 µg/mL) | 0.19 µM (≈ 0.0801 µg/mL)
8 | C/C(=N\C#N)NC[C@H]1CN(c2ccc(-c3ccnn3C)c(F)c2)C(=O)O1 [Example 6, (S,E)-N′-cyano-N-((3-(3-fluoro-4-(1-methyl-1H-pyrazol-5-yl)phenyl)-2-oxooxazolidin-5-yl)methyl)acetimidamide] | 0.78 µM (≈ 0.278 µg/mL) | 0.78 µM (≈ 0.278 µg/mL)
9 | C/C(=N\C#N)NC[C@H]1CN(c2ccc(-c3ccc(S(C)(=O)=O)cc3)c(F)c2)C(=O)O1 [Example 14, (S,E)-N′-cyano-N-((3-(2-fluoro-4′-(methylsulfonyl)-[1,1′-biphenyl]-4-yl)-2-oxooxazolidin-5-yl)methyl)acetimidamide] | 0.58 µM (≈ 0.25 µg/mL) | 0.58 µM (≈ 0.25 µg/mL)
10 | C/C(=N\C#N)NC[C@H]1CN(c2ccc(-c3ccc(-n4nnc(C)n4)nc3)c(F)c2)C(=O)O1 [Example 12, (S,E)-N′-cyano-N-((3-(3-fluoro-4-(6-(5-methyl-2H-tetrazol-2-yl)pyridin-3-yl)phenyl)-2-oxooxazolidin-5-yl)methyl)acetimidamide] | 0.19 µM (≈ 0.0827 µg/mL) | 0.14 µM (≈ 0.061 µg/mL)
11 | C/C(=N\C#N)NC[C@H]1CN(c2ccc(-c3ccc(-n4nccn4)nc3)c(F)c2)C(=O)O1 [Example 10, (S,E)-N-((3-(4-(6-(2H-1,2,3-triazol-2-yl)pyridin-3-yl)-3-fluorophenyl)-2-oxooxazolidin-5-yl)methyl)-N′-cyanoacetimidamide] | 0.39 µM (≈ 0.164 µg/mL) | 0.14 µM (≈ 0.0589 µg/mL)
12 | N=CNC[C@H]1CN(c2cc(F)c(N3CCOCC3)c(F)c2)C(=O)O1 [Example 20, (S)-N-((3-(3,5-difluoro-4-morpholinophenyl)-2-oxooxazolidin-5-yl)methyl)formimidamide] | 0.58 µM (≈ 0.197 µg/mL) | 0.14 µM (≈ 0.0476 µg/mL)
13 | Cn1nccc1-c1ccc(N2C[C@H](CNC=N)OC2=O)cc1F [Example 15, (S)-N-((3-(3-fluoro-4-(1-methyl-1H-pyrazol-5-yl)phenyl)-2-oxooxazolidin-5-yl)methyl)formimidamide] | 0.78 µM (≈ 0.248 µg/mL) | 0.39 µM (≈ 0.124 µg/mL)
14 | CS(=O)(=O)c1ccc(-c2ccc(N3C[C@H](CN/C(N)=N/C#N)OC3=O)cc2F)cn1 [Example 5, (S,E)-2-cyano-1-((3-(3-fluoro-4-(6-(methylsulfonyl)pyridin-3-yl)phenyl)-2-oxooxazolidin-5-yl)methyl)guanidine] | 0.39 µM (≈ 0.169 µg/mL) | 0.78 µM (≈ 0.337 µg/mL)
15 | CS(=O)(=O)c1ccc(-c2ccc(N3C[C@H](CNC=N)OC3=O)cc2F)cc1 [Example 16, (S)-N-((3-(2-fluoro-4′-(methylsulfonyl)-[1,1′-biphenyl]-4-yl)-2-oxooxazolidin-5-yl)methyl)formimidamide] | 0.39 µM (≈ 0.153 µg/mL) | 0.19 µM (≈ 0.0744 µg/mL)
16 | C/C(=N\C#N)NC[C@H]1CN(c2ccc(-c3cccc(S(N)(=O)=O)c3)c(F)c2)C(=O)O1 [Example 7, (S,E)-N′-cyano-N-((3-(2-fluoro-3′-sulfamoyl-[1,1′-biphenyl]-4-yl)-2-oxooxazolidin-5-yl)methyl)acetimidamide] | 1.14 µM (≈ 0.492 µg/mL) | 1.5 µM (≈ 0.647 µg/mL)
17 | N=CNC[C@H]1CN(c2ccc(-c3ccc(-n4cnnn4)nc3)c(F)c2)C(=O)O1 [Example 17, (S)-N-((3-(4-(6-(1H-tetrazol-1-yl)pyridin-3-yl)-3-fluorophenyl)-2-oxooxazolidin-5-yl)methyl)formimidamide] | 0.24 µM (≈ 0.0918 µg/mL) | 0.12 µM (≈ 0.0459 µg/mL)
18 | Cc1nnn(-c2ccc(-c3ccc(N4C[C@H](CN/C(N)=N/C#N)OC4=O)cc3F)cn2)n1 [Example 2, (S,E)-2-cyano-1-((3-(3-fluoro-4-(6-(5-methyl-2H-tetrazol-2-yl)pyridin-3-yl)phenyl)-2-oxooxazolidin-5-yl)methyl)guanidine] | 0.19 µM (≈ 0.0829 µg/mL) | 0.09 µM (≈ 0.0393 µg/mL)
19 | CC(=N)NC[C@H]1CN(c2ccc(-c3cccc(S(N)(=O)=O)c3)c(F)c2)C(=O)O1 [Example 24, (S)-N-((3-(2-fluoro-3′-sulfamoyl-[1,1′-biphenyl]-4-yl)-2-oxooxazolidin-5-yl)methyl)acetimidamide] | 6.25 µM (≈ 2.54 µg/mL) | 6.25 µM (≈ 2.54 µg/mL)
20 | CS(=O)(=O)c1ccc(-c2ccc(N3C[C@H](CN/C(N)=N/C#N)OC3=O)cc2F)cc1 [Example 4, (S,E)-2-cyano-1-((3-(2-fluoro-4′-(methylsulfonyl)-[1,1′-biphenyl]-4-yl)-2-oxooxazolidin-5-yl)methyl)guanidine] | 0.39 µM (≈ 0.168 µg/mL) | 0.39 µM (≈ 0.168 µg/mL)
21 | C/C(=N\C#N)NC[C@H]1CN(c2cc(F)c(N3CCS(=O)(=O)CC3)c(F)c2)C(=O)O1 [Example 11, (S,E)-N′-cyano-N-((3-(4-(1,1-dioxidothiomorpholino)-3,5-difluorophenyl)-2-oxooxazolidin-5-yl)methyl)acetimidamide] | 3.12 µM (≈ 1.33 µg/mL) | 1.5 µM (≈ 0.641 µg/mL)
22 | N=CNC[C@H]1CN(c2cc(F)c(-c3cccc(S(N)(=O)=O)c3)c(F)c2)C(=O)O1 [Example 19, (S)-N-((3-(2,6-difluoro-3′-sulfamoyl-[1,1′-biphenyl]-4-yl)-2-oxooxazolidin-5-yl)methyl)formimidamide] | 0.68 µM (≈ 0.279 µg/mL) | 0.39 µM (≈ 0.16 µg/mL)
23 | Cn1nccc1-c1ccc(N2C[C@H](CN/C(N)=N/C#N)OC2=O)cc1F [Example 1, (S,E)-2-cyano-1-((3-(3-fluoro-4-(1-methyl-1H-pyrazol-5-yl)phenyl)-2-oxooxazolidin-5-yl)methyl)guanidine] | 0.78 µM (≈ 0.279 µg/mL) | 0.78 µM (≈ 0.279 µg/mL)
24 | C/C(=N\C#N)NC[C@H]1CN(c2ccc(-c3ccc(S(C)(=O)=O)nc3)c(F)c2)C(=O)O1 [Example 13, (S,E)-N′-cyano-N-((3-(3-fluoro-4-(6-(methylsulfonyl)pyridin-3-yl)phenyl)-2-oxooxazolidin-5-yl)methyl)acetimidamide] | 1.5 µM (≈ 0.647 µg/mL) | 0.78 µM (≈ 0.337 µg/mL)
25 | CC(=N)NC[C@H]1CN(c2ccc(-c3ccc(-n4cnnn4)nc3)c(F)c2)C(=O)O1 [Example 23, (S)-N-((3-(4-(6-(1H-tetrazol-1-yl)pyridin-3-yl)-3-fluorophenyl)-2-oxooxazolidin-5-yl)methyl)acetimidamide] | 12.5 µM (≈ 4.95 µg/mL) | 6.25 µM (≈ 2.48 µg/mL)
